Here are results for three compounds from patent publication US8232289B2, “Spiropiperidine compounds as ORL-1 receptor antagonists” (Eli Lilly and Company, priority 2009, dated 2012).

Where two headings read alike, the source gives them in different places. Marks after values point to notes of the source that are not given here.

One assay addresses Kappa Opioid (Homo sapiens, UniProt P41145). Nature of the assay: Radioligand binding selectivity, Kappa Opioid. The text has this: (§1) Similarly, Ki for the mu, kappa and delta opioids, serotonin, dopamine, adrenergic, mucarinic, and histamine receptors, as well as binding to the norepinephrine transporter, sodium channel, chloride channel, and calcium channel may be determined using membranes expressing the desired receptor/transporter/channels and appropriate corresponding radioligand competitor molecules.

The next assay deals with Delta Opioid (Homo sapiens, UniProt P41143). Kind of assay: Radioligand binding selectivity, Delta Opioid.
Text: as §1

Assay [1] deals with T1, nociceptin/ORL1 receptors (Rattus norvegicus, UniProt P35370).
T1 construct: from tissue; host or cells: rat hypothalamus (in vivo)
Nature of the assay: In vivo receptor occupancy (LC/MS/MS, RO Tracer) in hypothalamus. On the set-up: species or system rats. Conditions: for receptor occupancy at 3 mg/kg: rat hypothalamus, 3 mg/kg oral dose, after 6 hr. How it is done:
Receptor occupancy (RO) using LC/MS/MS has been established as a way to measure central target engagement of putative ORL-1 antagonist in vivo. Nociceptin/ORL1 receptor occupancy (RO) is measured in the hypothalamus, a structure which contains a high density of nociceptin/ORL1 binding sites that are inside the blood brain barrier, using a novel proprietary nociceptin/ORL1 antagonist RO tracer, 2-[(2-fluorophenyl)methyl]-3-(2-fluorospiro[4,5-dihydrothieno[2,3-c]pyran-7,4′-piperidine]-1′-yl)-N,N-dimethyl-propanamide, (RO Tracer). These measurements are made without the need for a radiolabeled tracer as previously published for other receptors with modifications (Chemet E, Martin L J, Li D, Need A B, Barth V N, Rash K S, Phebus L A. Use of LC/MS to assess brain tracer distribution in preclinical, in vivo receptor occupancy studies: dopamine D2, serotonin 2A and NK-1 receptors as examples. Life Sci. 78(4):340-6, 2005.). A positive correlation has been established between central nociceptin/ORL1 RO and efficacy in the modulation of the feeding behavior and forced swim test in rodents. Central nociceptin/ORL1 RO is measured at 6 or 24 hours following oral administration of the test compound to rats. Male Sprague-Dawley rats (Harlan Sprague-Dawley, Indianapolis, Ind.) are treated orally with a test compound, or vehicle (20% Captisol, 25 mM phosphate buffer, pH 2.0). At 6 or 24 hours following administration of test compound/vehicle, all animals are administered an intravenous, 3 ng/kg dose of RO Tracer. It is at the time of RO Tracer administration that RO is considered to be measured. Forty minutes after RO Tracer administration, rats are sacrificed by cervical dislocation and the hypothalamus is removed. The level of RO Tracer is measured in each tissue sample.
The centrally active literature reference standard (−)-cis-1-methyl-7-[[4-(2,6-dichlorophenyl)piperidin-1-yl]methyl]-6,7,8,9-tetrahydro-5H-benzocyclohepten-5-ol (SB612111, see Magdalena and Heisler, supra), a potent nociceptin/ORL1 receptor selective antagonist, is used as a positive control to establish the RO Tracer level associated with 100% nociceptin/ORL1 RO. […]
Hypothalamic samples are homogenized in 4 volumes (w/v) of acetonitrile containing 0.1% formic acid and centrifuged at 14,000 RPM for 16 min. […] Detection of RO Tracer is accomplished by monitoring the precursor to product ion transition with a mass to charge ratio (m/z) of 435 to 239, with levels quantified by comparison to standards prepared in brain tissue homogenates. Zero percent RO is calculated as the level of RO Tracer in the hypothalamus of vehicle-pretreated animals, which represents the sum of nonspecific and specific binding (all receptors available to the tracer). […]

Assay [2] addresses T2, human ERG (hERG) K+ channel (Homo sapiens, UniProt Q12809).
T2 construct: host or cells: HEK293 cells
Nature of the assay: hERG channel [3H]astemizole binding assay. How it is done:
Blockade of K^+-channel conductance in the heart is associated with cardiotoxicity in the form of QT-wave prolongation. The affinity (K) of the exemplified nociceptin receptor antagonists for the human ERG (hERG) K^+ channel is determined in HEK293 cells expressing cloned hERG using the hERG channel antagonist radioligand [3H]astemizole (2 nM final assay concentration) according to well known procedures (see for example Finlayson K, et al. (Eur J Pharmacol. 412(3):203-12, 2001) [3H]Astemizole binding assays are performed at the contract research company Cerep (Paris France) according to standard procedures.
In general terms: hERG is a cardiac potassium channel; its block is linked to QT prolongation.

In the next assay the test system is male NIH-Swiss mice. Nature of the assay: Forced-swim test in mice (mFST). The class given is in vivo. Conditions: for ED60 in mFST: immobilization time; for maximum effect, reduction in immobilization time: mouse, in vivo. The text has this:
mFST is an established in vivo assay for antidepressant activity (Li et al. J Pharmacol Exp Ther. 319(1):254-9, 2006.). […] The mFST was used to evaluate potential antidepressant-like activity of novel nociceptin/ORL1 antagonists according to previously published methods (Li et al. J Pharmacol Exp Ther. 319(1):254-9, 2006.). Briefly, male NIH-Swiss mice (Harlan Sprague-Dawley, Indianapolis, Ind.) weighing between 25-30 g are used. Group housed animals are removed from the vivarium to the testing area in their own cages and allowed to adapt to the new environment for at least 1 hour before testing. Alternatively, male 129S6 wild type and nociceptin/ORL1 receptor knockout mice were used to confirm dependence of the response to compound was nociceptin/ORL1 receptor dependent. All compounds are prepared in 20% Captisol, 25 mM phosphate buffer, pH 2.0 on the day of use. Mice are placed in a cylinder (diameter: 10 cm; height: 25 cm) filled with 6 cm of water (22-25° C.) for 6 min. The duration of immobility during the last 4 min. of the 6 min. period of the test was scored. A mouse is recorded as immobile when floating motionless or making only those movements necessary to keep its head above water.

Sequence of Delta Opioid (P41143 whole entry): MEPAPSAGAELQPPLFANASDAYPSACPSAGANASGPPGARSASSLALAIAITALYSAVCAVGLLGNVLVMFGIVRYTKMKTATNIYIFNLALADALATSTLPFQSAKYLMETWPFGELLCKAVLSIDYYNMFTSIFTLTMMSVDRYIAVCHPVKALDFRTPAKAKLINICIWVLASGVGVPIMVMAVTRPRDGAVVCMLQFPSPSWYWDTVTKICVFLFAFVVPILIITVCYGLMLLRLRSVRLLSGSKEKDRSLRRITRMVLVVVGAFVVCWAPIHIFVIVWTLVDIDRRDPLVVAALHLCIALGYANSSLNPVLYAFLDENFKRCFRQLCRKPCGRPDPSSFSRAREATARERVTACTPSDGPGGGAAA
Sequence of Kappa Opioid (P41145 whole entry): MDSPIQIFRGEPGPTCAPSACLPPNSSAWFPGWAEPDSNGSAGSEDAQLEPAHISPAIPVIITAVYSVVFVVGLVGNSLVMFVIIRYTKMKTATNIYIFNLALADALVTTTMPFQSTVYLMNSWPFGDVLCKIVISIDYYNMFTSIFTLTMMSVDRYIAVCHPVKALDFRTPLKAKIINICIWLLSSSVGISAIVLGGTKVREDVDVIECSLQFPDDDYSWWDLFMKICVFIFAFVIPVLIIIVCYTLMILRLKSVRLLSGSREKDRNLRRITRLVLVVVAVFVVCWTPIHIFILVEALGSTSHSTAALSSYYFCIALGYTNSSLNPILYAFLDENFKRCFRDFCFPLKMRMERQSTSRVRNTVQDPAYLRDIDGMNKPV
T2 sequence (Q12809 whole entry): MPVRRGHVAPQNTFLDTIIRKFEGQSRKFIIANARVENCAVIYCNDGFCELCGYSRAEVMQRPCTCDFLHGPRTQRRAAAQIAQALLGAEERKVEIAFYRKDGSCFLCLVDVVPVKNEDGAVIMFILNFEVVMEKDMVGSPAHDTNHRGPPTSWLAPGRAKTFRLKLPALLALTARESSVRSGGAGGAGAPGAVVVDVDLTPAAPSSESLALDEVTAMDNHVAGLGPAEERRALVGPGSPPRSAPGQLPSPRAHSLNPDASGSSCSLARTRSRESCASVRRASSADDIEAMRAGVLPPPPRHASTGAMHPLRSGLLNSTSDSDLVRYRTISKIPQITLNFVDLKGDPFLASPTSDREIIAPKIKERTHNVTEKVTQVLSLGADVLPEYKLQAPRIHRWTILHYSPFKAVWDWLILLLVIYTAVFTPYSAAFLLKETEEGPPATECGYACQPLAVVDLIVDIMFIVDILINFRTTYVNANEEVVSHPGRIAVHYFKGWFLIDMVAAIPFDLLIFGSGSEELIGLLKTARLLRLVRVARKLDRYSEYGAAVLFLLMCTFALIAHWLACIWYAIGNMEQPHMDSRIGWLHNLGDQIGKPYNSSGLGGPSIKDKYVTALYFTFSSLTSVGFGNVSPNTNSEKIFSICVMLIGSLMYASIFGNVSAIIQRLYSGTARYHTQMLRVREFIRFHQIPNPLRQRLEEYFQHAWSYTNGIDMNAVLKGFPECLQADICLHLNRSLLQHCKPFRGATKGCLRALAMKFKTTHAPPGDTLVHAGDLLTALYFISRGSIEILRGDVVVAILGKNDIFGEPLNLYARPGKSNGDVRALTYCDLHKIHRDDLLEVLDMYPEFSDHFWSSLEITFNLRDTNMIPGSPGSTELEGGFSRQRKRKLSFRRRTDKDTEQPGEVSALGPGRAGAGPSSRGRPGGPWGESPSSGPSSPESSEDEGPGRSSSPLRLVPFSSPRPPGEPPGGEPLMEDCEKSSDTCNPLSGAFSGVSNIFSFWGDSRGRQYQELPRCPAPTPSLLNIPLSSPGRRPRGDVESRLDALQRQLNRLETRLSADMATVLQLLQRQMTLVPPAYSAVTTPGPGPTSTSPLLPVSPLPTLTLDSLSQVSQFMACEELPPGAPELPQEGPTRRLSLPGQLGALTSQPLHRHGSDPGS
T1 sequence (P35370 whole entry): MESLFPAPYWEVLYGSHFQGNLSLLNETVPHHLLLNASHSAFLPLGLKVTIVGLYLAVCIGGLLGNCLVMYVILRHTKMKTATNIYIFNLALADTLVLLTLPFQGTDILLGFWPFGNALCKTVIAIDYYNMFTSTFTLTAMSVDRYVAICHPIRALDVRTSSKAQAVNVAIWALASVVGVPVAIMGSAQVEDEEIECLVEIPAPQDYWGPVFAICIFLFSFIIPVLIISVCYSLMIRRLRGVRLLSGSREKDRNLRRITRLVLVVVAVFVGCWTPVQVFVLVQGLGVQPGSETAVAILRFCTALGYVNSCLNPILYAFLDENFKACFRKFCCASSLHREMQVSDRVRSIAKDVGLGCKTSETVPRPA

For `Cc1nn(-c2ncccc2Cn2cccn2)cc1CN1CCC2(CC1)OCC(F)(F)c1cc(Cl)sc12.O=C(O)C(O)C(O)C(=O)O` [Example 23, 2-Chloro-4,4-difluoro-1′-[[3-methyl-1-[3-(pyrazol-1-ylmethyl)-2-pyridyl]pyrazol-4-yl]methyl]spiro[5H-thieno[2,3-c]pyran-7,4′-piperidine] (L)-Tartrate], the Ki on Kappa Opioid is more than 0.43 µM; on Delta Opioid it was more than 0.479 µM; in assay [2], 1.21 µM. In assay [1], this compound yielded a receptor occupancy at 3 mg/kg of 80%. Besides, the “ED60 in mFST” value in the assay on male NIH-Swiss mice was determined as 9.5 mg/kg. In addition, in the assay with male NIH-Swiss mice, the “maximum effect, reduction in immobilization time” value (shortened to “maximum effect, reduction”) is 58%.

`O=C(O)C(O)C(O)C(=O)O.OCc1nn(-c2ncccc2F)cc1CN1CCC2(CC1)OCC(F)(F)c1cc(Cl)sc12` [Example 53, [4-[(2-Chloro-4,4-difluoro-spiro[5H-thieno[2,3-c]pyran-7,4′-piperidine]-1′-yl)methyl]-1-(3-fluoro-2-pyridyl)pyrazol-3-yl]methanol (L)-Tartrate]: the Ki at Kappa Opioid is more than 0.43 µM; on Delta Opioid, more than 0.479 µM; in assay [2], 8.6 µM. In assay [1], this compound registered a receptor occupancy at 3 mg/kg of 83%. Besides, the “ED60 in mFST” value in the assay with male NIH-Swiss mice amounted to 12.9 mg/kg. Besides, in the assay with male NIH-Swiss mice, the “maximum effect, reduction” value was determined as 54%.

For the compound `Cc1nn(-c2ncccc2CO)cc1CN1CCC2(CC1)OCC(F)(F)c1cc(Cl)sc12` [Example 62, [2-[4-[(2-Chloro-4,4-difluoro-spiro[5H-thieno[2,3-c]pyran-7,4′-piperidine]-1′-yl)methyl]-3-methyl-pyrazol-1-yl]-3-pyridyl]methanol], the Ki at Kappa Opioid (read-out: Ki Kappa Opioid) was more than 0.43 µM; on Delta Opioid (read-out: Ki Delta Opioid) it was more than 0.479 µM; in assay [2] (HEK293 cells expressing cloned hERG, [3H]astemizole 2 nM, read-out: Ki hERG K+ channel) it was 6.08 µM. Moreover, in assay [1] (nociceptin/ORL1 receptors in the CNS), the “in vivo plasma concentration necessary to produce 80 percent RO (EC80 RO)” value is listed as “approximately 41 nM”. In addition, the receptor occupancy at 3 mg/kg in assay [1] is 104%. The “Immobilization Time” value is 97* sec in the assay on male NIH-Swiss mice (3 mg/Kg Ex. 62 + 10 mg/Kg fluoxetine); 163 s in the assay with male NIH-Swiss mice (3 mg/Kg, alone); 85* sec in the assay on male NIH-Swiss mice (10 mg/Kg Ex. 62 + 10 mg/Kg fluoxetine); 129 s with male NIH-Swiss mice (10 mg/Kg, alone). For the same compound, the “ED60 in mFST” value in the assay on male NIH-Swiss mice turned out to be 24.9 mg/kg. In the assay with male NIH-Swiss mice (in combination with 10 mg/kg fluoxetine), the “effect on immobilization time in combination with fluoxetine” value is listed as “significantly further reduce immobilization time over either fluoxetine or the compound of Example 62 alone”. Besides, in the assay on male NIH-Swiss mice, the “maximum effect, reduction” value turned out to be 45%.
